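All cell lines were grown in 96-well plates and treated with compound for 48 hours. Here, GI50 denotes the concentration required for 50% inhibition of growth. TGI denotes the concentration required for complete inhibition of growth.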

The subject of the first assay is SK-MEL-28 melanoma. Kind of assay: NCI tumour cell line growth inhibition, 48 h.
For `CC1=C(CCCOC(=O)NCCCl)C2=C(C)C3(CC3)[C@@](C)(O)C(=O)C2=C1`, the GI50 is 2.63 µM and the TGI is 8.03 µM.
In turn, `C[C@]12CCC(=O)C=C1CC[C@@H]1C2CC[C@]2(C)NC(=O)C(C#N)CC12` (stereo not given in full) showed a TGI of more than 100 µM.
Take `CN=C1NC(=O)/C(=C/c2ccc3ncccc3c2)S1`: the GI50 was 10.5 µM and the TGI was more than 25 µM.
With `CC1=C[C@@H]2Cc3occc3C(C)(C)[C@@H]2CC1`, the TGI is 49.5 µM.
Take `O=C(O)c1cc(S(=O)(=O)N=NC=C2c3ccccc3N(O)c3ccccc32)ccc1O`: the TGI was determined as 30.9 µM.
On the same count and under the same terms, for `O=c1[nH]c(=O)n(C2CC(O)C(CO)O2)cc1C#Cc1c(F)c(F)c(F)c(F)c1F` (stereo not given) the value was more than 100 µM; for `O=S(=O)(O)C(O)/C=C/c1ccccc1` (stereo not given), more than 100 µM.
In the case of `NS(=O)(=O)c1ccc(-n2nc(-c3ccc(Br)cc3)ccc2=O)cc1`, the GI50 is more than 10 µM and the TGI is more than 10 µM.
In the case of `S=C1NCCN1C1=Nc2ccccc2CO1`, the GI50 is more than 100 µM and the TGI was more than 100 µM.
`COc1ccc(/C=C(/C(=O)O)c2cc(OC)c(OC)c(OC)c2)cc1` showed a TGI of more than 100 µM.
Still for that read-out and setting: the figure for `COc1cc2c(cc1O)[C@H](Cc1ccc(Oc3cc(C[C@H]4c5cc(OC)c(OC)cc5CCN4C)ccc3OC)cc1)NCC2` is 30.8 µM; for `OCc1c(-c2cccc3ccccc23)sc(-c2cccc3ccccc23)c1CO` it is 23.3 µM.
As to `COc1ccc(-n2cc(-c3ccc(OC)c(OC)c3)[nH]c2=S)cc1Cl`, the GI50 was more than 100 µM and the TGI is more than 100 µM.
On to `Clc1cccc(NC=Nc2ccc(-c3nc4ccccc4s3)cc2)c1`, for which the GI50 is 0.143 µM and the TGI worked out at 18.4 µM.
`C[Si](C)(C)c1ccc(CC2(Cc3ccc([Si](C)(C)C)cc3)CCNC2)cc1`: the TGI stood at 5.05 µM.
For `Cc1cc(C)nc(NS(=O)(=O)c2ccc(NC(=O)c3cccc4c(=O)c5ccccc5[nH]c34)cc2)n1`, the TGI is 36 µM.
For the compound `Cn1cc(C2=C(c3ccc(OC[C@@H](O)CO)cc3)C(=O)NC2=O)c2ccccc21`, the GI50 was more than 25 µM and the TGI is more than 25 µM.
For the compound `O=C1c2ccccc2-c2c1c1cc3c(cc1c(=O)n2CCCCl)OCO3`, the GI50 was 19.2 µM and the TGI is more than 100 µM.
With `COc1nc2c(cc1S(=O)(=O)c1ccccc1)CCc1c-2cnn1-c1ccccc1Cl`, the GI50 is more than 100 µM and the TGI is more than 100 µM.

In a further assay the test system is RXF 393 renal. Kind of assay: NCI tumour cell line growth inhibition, 48 h.
As for `CC(=O)OCCc1cccnc1/C=N/O`, the TGI was more than 100 µM.
Still for that read-out and setting: for `C[C@]12CCC(=O)C=C1CC[C@@H]1C2CC[C@]2(C)NC(=O)C(C#N)CC12` (stereo not given in full) the value was more than 100 µM.
As to `CN=C1NC(=O)/C(=C/c2ccc3ncccc3c2)S1`, the GI50 was 8.08 µM and the TGI is more than 25 µM.
Compound `CC1=C[C@@H]2Cc3occc3C(C)(C)[C@@H]2CC1` gave a TGI of 33.7 µM.
`O=S(=O)(O)C(O)/C=C/c1ccccc1` (stereo not given) returned a TGI of more than 100 µM.
On to `NS(=O)(=O)c1ccc(-n2nc(-c3ccc(Br)cc3)ccc2=O)cc1`, for which the GI50 is more than 10 µM and the TGI is more than 10 µM.
Consider `COc1cc2c(cc1O)[C@H](Cc1ccc(Oc3cc(C[C@H]4c5cc(OC)c(OC)cc5CCN4C)ccc3OC)cc1)NCC2`, for which the TGI amounted to 18.3 µM.
Still for that read-out and setting: for `C[Si](C)(C)c1ccc(CC2(Cc3ccc([Si](C)(C)C)cc3)CCNC2)cc1` the value was 3.14 µM.
For the compound `Cn1cc(C2=C(c3ccc(OC[C@@H](O)CO)cc3)C(=O)NC2=O)c2ccccc21`, the GI50 is 16.4 µM and the TGI is more than 25 µM.
The matching figures for `COc1nc2c(cc1S(=O)(=O)c1ccccc1)CCc1c-2cnn1-c1ccccc1Cl`: 6.74 µM and more than 100 µM.

Another assay concerns RPMI-8226 leukemia. The experiment in a line: NCI tumour cell line growth inhibition, 48 h.
`Cc1cccc(C(C)(C)C)c1NC(=O)C(=O)Cc1nc2ccccc2s1` returned a TGI of more than 100 µM.
On the same count and under the same terms, for `CCC1CCC2CCCC(C)N12` (stereo not given) the value was more than 100 µM; for `CN1CCCNCCN(CCc2ccccn2)CCCN(C)CC1`, more than 70.4 µM.
Regarding `CC1=C(CCCOC(=O)NCCCl)C2=C(C)C3(CC3)[C@@](C)(O)C(=O)C2=C1`, the GI50 was 8.4 µM and the TGI amounted to 40.1 µM.
In turn, `C[C@]12CCC(=O)C=C1CC[C@@H]1C2CC[C@]2(C)NC(=O)C(C#N)CC12` (stereo not given in full) showed a TGI of more than 100 µM.
As for `CN=C1NC(=O)/C(=C/c2ccc3ncccc3c2)S1`, the GI50 is 12.1 µM and the TGI is more than 25 µM.
`O=C(O)c1cc(S(=O)(=O)N=NC=C2c3ccccc3N(O)c3ccccc32)ccc1O`: the TGI came out at 76.6 µM.
`O=c1[nH]c(=O)n(C2CC(O)C(CO)O2)cc1C#Cc1c(F)c(F)c(F)c(F)c1F` (stereo not given) gave a TGI of more than 100 µM.
Turning to `NS(=O)(=O)c1ccc(-n2nc(-c3ccc(Br)cc3)ccc2=O)cc1`, the GI50 was more than 10 µM and the TGI is more than 10 µM.
With `S=C1NCCN1C1=Nc2ccccc2CO1`, the GI50 is more than 100 µM and the TGI is more than 100 µM.
As for `COc1ccc(/C=C(/C(=O)O)c2cc(OC)c(OC)c(OC)c2)cc1`, the TGI was more than 100 µM.
Compound `COc1cc2c(cc1O)[C@H](Cc1ccc(Oc3cc(C[C@H]4c5cc(OC)c(OC)cc5CCN4C)ccc3OC)cc1)NCC2` gave a TGI of 46.8 µM.
Turning to `OCc1c(-c2cccc3ccccc23)sc(-c2cccc3ccccc23)c1CO`, the TGI came out at 43.7 µM.
For the compound `COc1ccc(-n2cc(-c3ccc(OC)c(OC)c3)[nH]c2=S)cc1Cl`, the GI50 was more than 100 µM and the TGI was more than 100 µM.
Consider `Clc1cccc(NC=Nc2ccc(-c3nc4ccccc4s3)cc2)c1`, for which the GI50 is 14.4 µM and the TGI is more than 50 µM.
With `Cc1cc(C)nc(NS(=O)(=O)c2ccc(NC(=O)c3cccc4c(=O)c5ccccc5[nH]c34)cc2)n1`, the TGI is 83 µM.
As for `Cn1cc(C2=C(c3ccc(OC[C@@H](O)CO)cc3)C(=O)NC2=O)c2ccccc21`, the GI50 was more than 25 µM and the TGI is more than 25 µM.
As for `O=C1c2ccccc2-c2c1c1cc3c(cc1c(=O)n2CCCCl)OCO3`, the GI50 is 78.6 µM and the TGI was more than 100 µM.
Turning to `COc1nc2c(cc1S(=O)(=O)c1ccccc1)CCc1c-2cnn1-c1ccccc1Cl`, the GI50 is 5.39 µM and the TGI was more than 100 µM.

Values taken from PubChem BioAssay (NCI).
